Experimental findings from US12479816B2, “20-HETE formation inhibitors” (UNIVERSITY OF PITTSBURGH—OF THE COMMONWEALTH SYSTEM OF …, priority 2019, dated 2025) are described below.

Data set [1] has as its system 20-HETE formation (CYP4) in HLM. Put plainly: Inhibition of 20-HETE formation at 250 or 500 nM in HLM microsomal incubations. In kind it is biochemical, human. Particulars: 500 nM compound; HLM 300 μg/ml, AA 100 μM, 20 min. As to the method:
(§1) To screen the inhibitory effects against 20-HETE formation, compounds were screened in HLM, RLM, RKM and rCYP4F2 microsomal incubations. Compounds dissolved in either 100% methanol or 100% DMSO to yield 10 mM stock solution. Microsomal incubations containing HLM, RLM, RKM (300 μg/ml) or rCYP4F2 (25 pmol/mL), AA (100 μM), NADPH (1 mM) treated with test compounds at various concentrations (500 nM or 250 nM) in a 1 ml total volume in incubation buffer (0.12 M potassium phosphate buffer containing 5 mM magnesium chloride). Reaction was started by adding NADPH to the incubates and was carried out at 37° C. in a shaking water bath for 20 min. Reaction was stopped by placing tubes on ice, followed by adding 125 μl 20-HETE-d6 as internal standard to each sample. Microsomal incubations were extracted with 3 ml ethyl ether twice, dried down under nitrogen gas and reconstituted in 125 μl 80:20 methanol:deionized H2O for analysis. 20-HETE formation was quantified using a validated UPLC-MS/MS assay and normalized by vehicle group. Each compound had three replications (n=3). Vehicle group was used as control to calculate percentage of 20-HETE formation rate. HET0016 (250 nM) was used as positive control. Incubates without NADPH group served as the negative control. An Acquity ultra performance LC autosampler (Waters, Milford, MA) was used to isolate 20-HETE on an UPLC BEH C18, 1.7 μm (2.1×100 mm) reversed-phase column (Waters, Milford, MA) protected by a guard column (2.1×5 mm; Waters, Milford, MA) of the same packing material. Column temperature was maintained at 55° C. Mobile phases consisted of 0.005% acetic acid, 5% acetonitrile in deionized water (A) and 0.005% acetic acid in acetonitrile (B). The flow rate for mobile phases is 0.5 ml/min. The initial mixture of mobile phase was 65:35 of A and B. Mobile phase B increased at 0.4 minutes after injection from 35% to 70% in a linear gradient over 4 minutes, and again increased to 95% over 0.5 minutes where it remained for 0.3 minutes. This was followed by a linear return to initial conditions over 0.1 minutes with a 1.5 minute pre-equilibration period prior to the next sample run. Total run time was 6.4 minutes for each injection. Injection volumes were 7.5 μl. Mass spectrometric analysis was carried out using a TSQ Quantum Ultra (Thermo Fisher Scientific, San Jose, CA) triple quadrupole mass spectrometer using heated electrospray ionization (HESI). Mass spectrometer was operated in negative selective reaction monitoring (SRM) mode with unit resolutions at both Q1 and Q3 set at 0.70 Da full width at half maximum. Scan time was set at 0.01 s and collision gas pressure was 1.3 mTorr. Quantitation of 20-HETE by SRM was performed by monitoring the m/z. Analytical data was acquired and analyzed using Xcaliber 3.0 data system (ThermoFinnigan, San Jose, CA).

Another data set has as its target T1, rCYP4F2 (Homo sapiens, UniProt P78329).
T1 sequence (P78329 5-520): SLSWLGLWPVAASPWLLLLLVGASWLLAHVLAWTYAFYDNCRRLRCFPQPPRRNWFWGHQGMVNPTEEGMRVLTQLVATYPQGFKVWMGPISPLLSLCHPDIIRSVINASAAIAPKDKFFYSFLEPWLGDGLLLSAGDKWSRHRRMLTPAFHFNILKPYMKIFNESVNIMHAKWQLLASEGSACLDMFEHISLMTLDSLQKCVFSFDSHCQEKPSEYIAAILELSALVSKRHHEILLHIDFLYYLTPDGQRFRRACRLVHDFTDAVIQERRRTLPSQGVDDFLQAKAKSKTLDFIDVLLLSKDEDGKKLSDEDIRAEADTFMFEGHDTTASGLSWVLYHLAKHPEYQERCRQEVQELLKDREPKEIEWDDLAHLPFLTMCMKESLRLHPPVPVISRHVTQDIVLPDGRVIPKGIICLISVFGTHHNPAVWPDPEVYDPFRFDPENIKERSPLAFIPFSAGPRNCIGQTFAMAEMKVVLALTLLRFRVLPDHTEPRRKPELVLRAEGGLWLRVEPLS
The data set is described as follows: Inhibition of 20-HETE formation at 250 or 500 nM in rCYP4F2 incubations. The settings on record: 500 nM compound; rCYP4F2 25 pmol/mL; read-out: rCYP4F2 % inh. @ 500 nM. In kind it is biochemical. As to the method:
as §1

In data set [2] the test system is 20-HETE formation (CYP4) in RLM. Put plainly: Inhibition of 20-HETE formation at 250 or 500 nM in RLM microsomal incubations. Format: biochemical, rat. Particulars: 500 nM compound; RLM 300 μg/ml. Here is the method: as §1
The nature of data set [3]: Turbidometric solubility determination. Format: physicochemical. The settings on record: PBS with 1% DMSO, aqueous buffer, kinetic from dmso stock, room temperature, OD620, read-out: Max Solub. As to the method:
Solubility determinations shown in Table 3 were obtained turbidometrically and in a manner similar to the one described in Perez et al., J. Biomol. Screen, 2015, 20(2), 254-64. The method requires small volumes of 100× stock concentration drug solution to be prepared in DMSO 0, 0.23, 0.47, 0.94, 1.88, 3.75, 7.5, 15.0, 30.0 and […]. The stock drug concentrations are then diluted 1:100 added into triplicate wells containing PBS in a clear bottom 384 well microtiter to achieve final testing concentrations of 0, 2.3, 4.7, 9.4, 18.8, 37.5, 75, 150, 300, 600 μM in 1% DMSO. The plate is allowed to equilibrate with constant shaking for 2 hours at room temperature. The plate is then placed in a SpectroMax V plate reader to measure absorbance at 620 nm. Increase in absorbance is evident in test wells which precipitation of the compound is evident. The plot of OD620 vs. drug concentration is used to calculate the maximum solubility limit as determined by a statistically significant increase in absorbance above the background levels.

Values after ≈ are worked out from the molar mass of the structure shown. Where only a bound is given, the exact number is not on record here.

On to `CC(=O)N(C)c1ccc(C2CCN(c3ccn[nH]3)CC2)c(F)c1` [Compound 71, N-(4-(1-(1H-Pyrazol-5-yl)piperidin-4-yl)-3-fluorophenyl)-N-methylacetamide], for which the “HLM % inh. @ 500 nM” value in data set [1] came out at 82%. The inhibition at 0.5 µM at rCYP4F2 is 52.2%. Also, the “RLM % inh. @ 500 nM” value in data set [2] stood at 25.00%. Moreover, the solubility at 2 h in data set [3] was over 600 µM.
The like results for `O=S1(=O)Cc2ccc(C3CCN(c4cn[nH]c4)CC3)cc2C1` [Compound 108, 5-(1-(1H-Pyrazol-4-yl)piperidin-4-yl)-1,3-dihydrobenzo[c]thiophene 2,2-dioxide] were, in that order, 90.00%, 83%, 41.70% and 187 µM (≈ 59.4 µg/mL).
The like results for `Clc1ccc(C2CCN(c3cn[nH]c3)CC2)cc1` [Compound 63, 4-(4-chlorophenyl)-1-(1H-pyrazol-4-yl)piperidine] were, in that order, 74.3%, 73.8%, 10.30% and 13.3 µM (≈ 3.48 µg/mL).
The like results for `O=C1CCCN1Cc1ccc(C2CCN(c3ccn[nH]3)CC2)cc1` [Compound 84, 1-(4-(1-(1H-Pyrazol-5-yl)piperidin-4-yl)benzyl)pyrrolidin-2-one] were, in that order, 79.4%, 80.3%, 42.70% and over 600 µM.
For the molecule `Fc1ccc(SC2CCN(c3cn[nH]c3)CC2)cc1` [Compound 70, 4-((4-Fluorophenyl)thio)-1-(1H-pyrazol-4-yl)piperidine], in data set [1], the “HLM % inh. @ 500 nM” value is 84.8%. For the same molecule, the inhibition at 0.5 µM on rCYP4F2 turned out to be 80.5%. For the same molecule, the “RLM % inh. @ 500 nM” value in data set [2] is 35.70%. In data set [3], the solubility at 2 h was 109 µM (≈ 30.2 µg/mL).
Regarding `COc1cc(F)cc(C2CCN(c3ccn[nH]3)CC2)c1` [Compound 73, 4-(3-Fluoro-5-methoxyphenyl)-1-(1H-pyrazol-5-yl)piperidine], the “HLM % inh. @ 500 nM” value in data set [1] is 61%. Besides, the inhibition at 0.5 µM on rCYP4F2 stood at 54.7%. Moreover, the “RLM % inh. @ 500 nM” value in data set [2] is recorded as 0.00%. Besides, in data set [3], the solubility at 2 h came out at 164 µM (≈ 45.2 µg/mL).
In the case of `O=C1CCCN1c1ccc(CC2CCN(c3cn[nH]c3)CC2)cc1` [Compound 107, 1-(4-((1-(1H-Pyrazol-4-yl)piperidin-4-yl)methyl)phenyl)pyrrolidin-2-one], the “HLM % inh. @ 500 nM” value in data set [1] is given as 78.90%. The inhibition at 0.5 µM on rCYP4F2 is 82.3%. The “RLM % inh. @ 500 nM” value in data set [2] worked out at 63.60%. Moreover, in data set [3], the solubility at 2 h amounted to 216 µM (≈ 70.1 µg/mL).
Turning to `COc1cc(F)cc(C2CCN(c3cn[nH]c3)CC2)c1` [Compound 72, 4-(3-Fluoro-5-methoxyphenyl)-1-(1H-pyrazol-4-yl)piperidine], the “HLM % inh. @ 500 nM” value in data set [1] stood at 77%. On rCYP4F2, the inhibition at 0.5 µM turned out to be 77%. For the same molecule, the “RLM % inh. @ 500 nM” value in data set [2] came to 11.00%. Moreover, the solubility at 2 h in data set [3] came out at 234 µM (≈ 64.4 µg/mL).
Take `Clc1ccc(C2CCN(c3ccn[nH]3)CC2)cc1` [Compound 62, 4-(4-chlorophenyl)-1-(1H-pyrazol-5-yl)piperidine]: in data set [1], the “HLM % inh. @ 500 nM” value is listed as 60.0%. Further, the inhibition at 0.5 µM at rCYP4F2 was found to be 45%. Moreover, the “RLM % inh. @ 500 nM” value in data set [2] is listed as 0.00%. Further, the solubility at 2 h in data set [3] is 42.4 µM (≈ 11.1 µg/mL).
As for `O=S(=O)(Nc1ccc(C2CCN(c3cn[nH]c3)CC2)cc1)C1CC1` [Compound 114, N-(4-(1-(1H-pyrazol-4-yl)piperidin-4-yl)phenyl)cyclopropanesulfonamide], the “HLM % inh. @ 500 nM” value in data set [1] is recorded as 68.7%. On rCYP4F2, the inhibition at 0.5 µM was determined as 87.4%. The “RLM % inh. @ 500 nM” value in data set [2] turned out to be 36.70%. Further, in data set [3], the solubility at 2 h came to 74 µM (≈ 25.6 µg/mL).
On to `Clc1cccc(C2CCN(c3cn[nH]c3)CC2)c1` [Compound 61, 4-(3-Chlorophenyl)-1-(1H-pyrazol-4-yl)piperidine], for which the “HLM % inh. @ 500 nM” value in data set [1] is recorded as 77.5%. For the same molecule, the inhibition at 0.5 µM at rCYP4F2 is 81.3%. Besides, the “RLM % inh. @ 500 nM” value in data set [2] is 61.00%. Besides, in data set [3], the solubility at 2 h was 121 µM (≈ 31.7 µg/mL).
